Test systems include BT-549 breast; DU-145 prostate; HOP-92 NSCLC; HT29 colon; K-562 leukemia; LOX IMVI melanoma; SK-OV-3 ovarian; U251 CNS; UACC-257 melanoma; UACC-62 melanoma.
What all share (test): growth of human tumour cells (NCI), 48 h

SMILES strings stand for the structures.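 Each compound was tested at five concentrations against cells in 96-well plates for 48 hours. The concentration for full growth arrest is given as TGI.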

The values below come from PubChem BioAssay (NCI).

For the compound `O=c1[nH]nc(-c2ccccc2)n1/N=C/c1cccc([N+](=O)[O-])c1`, the TGI in the assay on BT-549 breast, with DU-145 prostate, in the assay on HOP-92 NSCLC, in the assay on HT29 colon, in the assay on K-562 leukemia and in the assay on LOX IMVI melanoma was greater than 100 µM in each case. For the same compound, the TGI in the assay on SK-OV-3 ovarian, in the assay on U251 CNS, with UACC-257 melanoma and in the assay with UACC-62 melanoma was greater than 100 µM each time.

In the case of `COc1c2c(nc3ccccc13)-c1cc(C(CC(=O)OC(C)(C)C)C(=O)OC(C)C)c(CO)c(=O)n1C2` (centres undefined), the TGI with BT-549 breast, in the assay with DU-145 prostate, in the assay on HOP-92 NSCLC, with HT29 colon, with K-562 leukemia and with LOX IMVI melanoma was greater than 100 µM throughout. For the same compound, the TGI with SK-OV-3 ovarian was greater than 100 µM; in the assay with U251 CNS it was greater than 100 µM; in the assay on UACC-257 melanoma, greater than 100 µM; in the assay on UACC-62 melanoma it was 98.3 µM.

For `Cc1ccc(O)c(C2=CC3=NNC(=O)C3C(c3cccc(Cl)c3)C2)c1` (centres undefined), the TGI in the assay with BT-549 breast was 78.7 µM; with DU-145 prostate it was greater than 100 µM; in the assay with HOP-92 NSCLC, 96.1 µM; in the assay on HT29 colon it was 63.9 µM; with K-562 leukemia it was greater than 100 µM; in the assay on LOX IMVI melanoma, 49.1 µM. The TGI in the assay on SK-OV-3 ovarian is greater than 100 µM; in the assay with U251 CNS, greater than 100 µM; in the assay on UACC-257 melanoma, greater than 100 µM; in the assay with UACC-62 melanoma it was 86.6 µM.

For `O=C1CCCC/C1=C\c1ccc([N+](=O)[O-])cc1`, the TGI in the assay on BT-549 breast is 59.3 µM; in the assay on DU-145 prostate, greater than 100 µM; in the assay on HOP-92 NSCLC, 52.1 µM; with HT29 colon, greater than 100 µM; in the assay on K-562 leukemia, 32.1 µM; in the assay with LOX IMVI melanoma, 3.74 µM. For the same compound, the TGI was determined as 30.9 µM in the assay on SK-OV-3 ovarian, 29.6 µM in the assay with U251 CNS, 38.5 µM in the assay on UACC-257 melanoma and 30.7 µM in the assay with UACC-62 melanoma.

`COc1ccc2oc(S(=O)(=O)N3CC(CCl)c4ccc(N)cc43)cc2c1` (centres undefined): the TGI with BT-549 breast was greater than 55.8 µM; in the assay on DU-145 prostate, 0.515 µM; with HOP-92 NSCLC it was greater than 64.7 µM; in the assay with HT29 colon, 10.1 µM; with K-562 leukemia, greater than 60.1 µM; with LOX IMVI melanoma, greater than 53.1 µM. The TGI with SK-OV-3 ovarian, with U251 CNS, in the assay with UACC-257 melanoma and in the assay on UACC-62 melanoma was greater than 100 µM in each case.

On to `CC(=O)O[C@H]1CC[C@@]2(C)C(=CC[C@@H]3[C@@H]2CC[C@]2(C)c4c(n[nH]c4C)C[C@@H]32)C1`, for which the TGI in the assay on BT-549 breast was 32.1 µM; in the assay on DU-145 prostate it was 27.2 µM; in the assay with HOP-92 NSCLC it was 39.8 µM; in the assay with HT29 colon, 23.5 µM; with K-562 leukemia, greater than 100 µM; with LOX IMVI melanoma it was greater than 100 µM. Further, the TGI with SK-OV-3 ovarian is 46.1 µM; in the assay on U251 CNS, 31.3 µM; in the assay on UACC-257 melanoma it was 33.2 µM; in the assay with UACC-62 melanoma it was 25 µM.

As for `Cc1nc2ccc(S(=O)(=O)NS(=O)(=O)c3ccc(-c4ccccc4)cc3)cc2c(=O)n1NS(=O)(=O)c1ccc(-c2ccccc2)cc1`, the TGI in the assay with BT-549 breast, with DU-145 prostate, with HOP-92 NSCLC, with HT29 colon, in the assay with K-562 leukemia and in the assay with LOX IMVI melanoma was greater than 100 µM each time. Besides, the TGI with SK-OV-3 ovarian, with U251 CNS, in the assay on UACC-257 melanoma and in the assay with UACC-62 melanoma was greater than 100 µM each time.

As to `COc1ccc(-c2c(-c3ccccc3)c(C)c3ccccn23)cc1`, the TGI in the assay with BT-549 breast, in the assay with DU-145 prostate, in the assay with HOP-92 NSCLC, in the assay with HT29 colon, in the assay with K-562 leukemia and with LOX IMVI melanoma was greater than 100 µM each time. The TGI in the assay with SK-OV-3 ovarian, with U251 CNS, in the assay with UACC-257 melanoma and with UACC-62 melanoma was greater than 100 µM in each case.

As for `C=C1C[C@@H](O)[C@@H](Br)C(C)(C)[C@@]12C=CC(=O)CC2`, the TGI in the assay on BT-549 breast, in the assay on DU-145 prostate, with HOP-92 NSCLC, with HT29 colon, with K-562 leukemia and with LOX IMVI melanoma was greater than 100 µM in each case. Also, the TGI in the assay on SK-OV-3 ovarian, in the assay on U251 CNS, in the assay on UACC-257 melanoma and with UACC-62 melanoma was greater than 100 µM throughout.

For `CCC(C)C(N)C(=O)N/N=C\c1c2c(nc3ccccc13)-c1cc3c(c(=O)n1C2)COC(=O)[C@]3(O)CC` (some centres undefined), the TGI in the assay on BT-549 breast was greater than 30.2 µM; in the assay on DU-145 prostate, 2.04 µM; in the assay on HOP-92 NSCLC, 1.8 µM; in the assay on HT29 colon, greater than 100 µM; in the assay with K-562 leukemia it was greater than 45.1 µM; in the assay with LOX IMVI melanoma it was 1.08 µM. The TGI with SK-OV-3 ovarian is greater than 64.5 µM; in the assay on U251 CNS, 0.669 µM; in the assay with UACC-257 melanoma it was 11.9 µM; with UACC-62 melanoma it was 0.106 µM.

As for `COc1ccc2cc(CNCCCCCCCCNCc3ccc4cc(OC)ccc4c3)ccc2c1`, the TGI with BT-549 breast is 9.97 µM; with DU-145 prostate, greater than 100 µM; in the assay with HOP-92 NSCLC it was 10 µM; in the assay on HT29 colon it was 8.46 µM; in the assay on K-562 leukemia, 47.7 µM; with LOX IMVI melanoma it was 43.4 µM. Moreover, the figures for the TGI in the assay with U251 CNS, in the assay with UACC-257 melanoma and in the assay on UACC-62 melanoma were 6.66 µM, 10.1 µM and 3.79 µM, respectively.

Consider `COc1cc(/C=C2\C[C@H]3[C@@H]4CCC5=CC(=O)CC[C@]5(C)[C@H]4CC[C@]3(C)C2=O)cc(OC)c1OC`, for which the TGI with BT-549 breast is greater than 95.4 µM; in the assay with DU-145 prostate, greater than 100 µM; in the assay on HOP-92 NSCLC, greater than 100 µM; in the assay on HT29 colon, greater than 100 µM; in the assay with K-562 leukemia it was greater than 100 µM; in the assay with LOX IMVI melanoma it was greater than 100 µM. Further, the TGI in the assay with SK-OV-3 ovarian is greater than 100 µM; in the assay on U251 CNS, greater than 100 µM; in the assay on UACC-257 melanoma it was greater than 84.2 µM; in the assay with UACC-62 melanoma it was greater than 51.4 µM.

In the case of `O=C(Cn1cc(Br)c(=O)[nH]c1=O)c1ccc(-c2ccccc2)cc1`, the TGI in the assay with BT-549 breast was greater than 23.8 µM; in the assay on DU-145 prostate, greater than 30.7 µM; in the assay on HOP-92 NSCLC it was 82.5 µM; in the assay on HT29 colon, greater than 100 µM; with K-562 leukemia, greater than 17.3 µM; in the assay on LOX IMVI melanoma, greater than 27.4 µM. For the same compound, the TGI in the assay on SK-OV-3 ovarian was greater than 100 µM; in the assay on U251 CNS, 62.5 µM; with UACC-257 melanoma, greater than 100 µM; in the assay on UACC-62 melanoma it was greater than 100 µM.
